One series is described as follows: Blood concentration test. The class given is in vivo. Particulars: beagle dog fasted overnight, oral, DFNa 6 mg/kg body weight.
The nature of series [1]: Plasma DFNa concentration in the gastric mucosa stimulus test. It is filed as in vivo, male Wistar rats. Particulars: DFNa 50 mg/kg body weight by intrastomach catheter, blood after 3.5 hours. How it is done:
(§1) Gastric mucosa stimulus test for the S/O type complex suspension obtained in Production example 1 was carried out. Specifically, according to the method disclosed by Tsurumi et al. (Folia Pharmacol. Japan, 69, pp.319-334 (1973)), five male Wistar rats having an average body weight of 140 g were fasted for 18 hours in advance, and were administered so that the dose amount of DFNa was 50 mg/kg body weight by means of an intrastomach catheter for rat. After 3.5 hours, the rats were sacrificed and dissected, and the condition of the gastric mucosa was observed. Also blood collected after 3.5 hours was centrifuged to obtain a plasma sample, and DFNa concentration in the plasma was determined by HPLC.

The subject of a further series is gastric mucosa. Put plainly: Gastric mucosa stimulus test. The procedure:
as §1

The structures appear in SMILES notation. Where “and” joins values, the source holds several entries; their conditions need not be identical. Equal entries are not always repeated. Entries after “also recorded” stand apart in the source; their conditions may differ.

The term half-life denotes how long it takes for the measured level to halve. High values mean slow decline, low ones rapid decline. As for `O=C(O)Cc1ccccc1Nc1c(Cl)cccc1Cl` [DFNa solution, diclofenac sodium], in “Blood concentration test”, the “Area under medicine concentration curve” value worked out at 62800 ng·h/mL, the Maximum blood concentration is 26.4 µg/mL and the “Maximum blood concentration reach time” value amounted to 1 h. This compound also gave a half-life in the series “Blood concentration test” (serum) of 58.8 min. Besides, in series [1] (group average, rat), the “Plasma DFNa concentration, Average” value turned out to be 6.21 ± 2.03. The “Plasma DFNa concentration” value in series [1] (individual rat) is 3.99 and 7.98 and 6.64. Besides, the “Condition of gastric mucosa” value with gastric mucosa (individual rat, DFNa 50 mg/kg body weight by intrastomach catheter, observed after 3.5 hours) was “Dotted bleeding; also recorded: Gastric ulcer”. Further, the “abnormality in gastric mucosa” value with gastric mucosa (rat, DFNa 50 mg/kg body weight) is “clear abnormality is observed”.

For the origin of these results see patent US20070207138A1, “S/O Type Pharmaceutical Preparation and Method for Producing the Same” (ASPION CO., LTD., priority 2004, published 2007).
